In one experiment the test system is A549 cells. Put plainly: Inhibition of cell growth in tumor cells, MTT assay. The class given is cell-based. The following applies: Homo sapiens, A549, 72 h, read-out: A549 cell IC50. The method, then: Inhibition of cell growth by compounds was measured using MTT assay (Mosmann, T., Journal of Immunological Methods, 1983, 65, 55-63). Tumor cell lines were purchased from ATCC (American Type Culture Collection, Manassas, Va.). All cell lines were maintained in RPMI 1640 (Hyclone) supplemented with 10% fetal bovine serum (FBS, Hyclone), glutamine (2 mM, Hyclone), and antibiotics (penicillin 100 U/mL and streptomycin 50 μg/mL) at 37° C. in a humidified atmosphere of 5% CO2 in air. Taxol (positive control, Sigma) and compounds were dissolved in DMSO (Sigma), and the final concentration of DMSO in the medium was 1%. Tumor cells were plated in 96-well plates at densities from 4000 cells/well of a 96-well plate and allowed to adhere/grow for 24 h. They were then treated with various concentrations of drug for 72 h. 3-(4,5-Dimethylthiazol-2-yl)-2,5-diphenyltetrazolium bromide (MTT, Sigma) was used to determine the number of viable cells at the time of compound addition and the number of cells remaining after 72 h compound exposure. The number of cells remaining after 72 h was compared to the number of viable cells at the time of compound addition by measuring the absorbance at 570 nm, allowing for the calculation of growth inhibition.
All concentrations of compounds were tested in triplicate and controls were averaged over 4 wells. IC50 was calculated by plotting the concentration of compound vs the percentage of inhibition in treated wells using GraphPad Prism 5. […]
As to `COc1ccc(C[C@H]2COC(=O)[C@@H]2Cc2ccc(OC(=O)N3CCN(C)CC3)c(OC)c2)cc1OC` [4-(((3R,4R)-4-(3,4-dimethoxybenzyl)-2-oxotetrahydrofuran-3-yl)methyl)-2-methoxyphenyl 4-methylpiperazine-1-carboxylate], the IC50 turned out to be 850 nM.
The same measure, in the same setting: next, `COc1ccc(C[C@H]2COC(=O)[C@@H]2Cc2ccc(OC(=O)N(C)CCN(C)C)c(OC)c2)cc1OC` [4-(((3R,4R)-4-(3,4-dimethoxybenzyl)-2-oxotetrahydrofuran-3-yl)methyl)-2-methoxyphenyl (2-(dimethylamino)ethyl)(methyl)carbamate]: 1020 nM; `COCCN(C)C(=O)Oc1ccc(C[C@H]2C(=O)OC[C@@H]2Cc2ccc(OC)c(OC)c2)cc1OC` [4-(((3R,4R)-4-(3,4-dimethoxybenzyl)-2-oxotetrahydrofuran-3-yl)methyl)-2-methoxyphenyl (2-methoxyethyl)(methyl)carbamate]: 687 nM; `COc1ccc(C[C@H]2COC(=O)[C@@H]2Cc2ccc(OC(=O)N(C)CCO)c(OC)c2)cc1OC` [4-(((3R,4R)-4-(3,4-dimethoxybenzyl)-2-oxotetrahydrofuran-3-yl)methyl)-2-methoxyphenyl (2-hydroxyethyl)(methyl)carbamate]: 1070 nM.
Same read-out and setting: next, `COc1ccc(C[C@H]2COC(=O)[C@@H]2Cc2ccc(OC(=O)N(C)C)c(OC)c2)cc1OC` [4-(((3R,4R)-4-(3,4-dimethoxybenzyl)-2-oxotetrahydrofuran-3-yl)methyl)-2-methoxyphenyl dimethylcarbamate]: 521 nM; `COc1ccc(C[C@H]2COC(=O)[C@@H]2Cc2ccc(OC(=O)N3CC[C@H](N)C3)c(OC)c2)cc1OC` [(S)-4-(((3R,4R)-4-(3,4-dimethoxybenzyl)-2-oxotetrahydrofuran-3-yl)methyl)-2-methoxyphenyl 3-aminopyrrolidine-1-carboxylate]: 923 nM; `COc1ccc(C[C@H]2COC(=O)[C@@H]2Cc2ccc(OC(=O)N3CCNCC3)c(OC)c2)cc1OC` [4-(((3R,4R)-4-(3,4-dimethoxybenzyl)-2-oxotetrahydrofuran-3-yl)methyl)-2-methoxyphenyl piperazine-1-carboxylate]: 799 nM.
On to `COCCN1CCN(C(=O)Oc2ccc(C[C@H]3C(=O)OC[C@@H]3Cc3ccc(OC)c(OC)c3)cc2OC)CC1` [4-(((3R,4R)-4-(3,4-dimethoxybenzyl)-2-oxotetrahydrofuran-3-yl)methyl)-2-methoxyphenyl 4-(2-methoxyethyl)piperazine-1-carboxylate], for which the IC50 is 788 nM.

The experiment is the same for the next values; noted with them: Homo sapiens; MTT assay, 72 h compound exposure, A549 cells; read-out: A549 cell IC50.
As for `COc1ccc(C[C@H]2COC(=O)[C@@H]2Cc2ccc(OC(=O)N3CC[C@H](O)C3)c(OC)c2)cc1OC` [(S)-4-(((3R,4R)-4-(3,4-dimethoxybenzyl)-2-oxotetrahydrofuran-3-yl)methyl)-2-methoxyphenyl 3-hydroxypyrrolidine-1-carboxylate], the IC50 amounted to 841 nM.
Regarding `COc1ccc(C[C@H]2COC(=O)[C@@H]2Cc2ccc(OC(=O)N3CCOCC3)c(OC)c2)cc1OC` [4-(((3R,4R)-4-(3,4-dimethoxybenzyl)-2-oxotetrahydrofuran-3-yl)methyl)-2-methoxyphenyl morpholine-4-carboxylate], the IC50 is 767 nM.
Regarding `COc1ccc(C[C@H]2COC(=O)[C@@H]2Cc2ccc(OC(=O)N3CC[C@@H](O)C3)c(OC)c2)cc1OC` [(R)-4-(((3R,4R)-4-(3,4-dimethoxybenzyl)-2-oxotetrahydrofuran-3-yl)methyl)-2-methoxyphenyl 3-hydroxypyrrolidine-1-carboxylate], the IC50 is 587 nM.
Still for that read-out and setting: the value for `COc1ccc(C[C@H]2COC(=O)[C@@H]2Cc2ccc(OC(=O)N3CCCCC3)c(OC)c2)cc1OC` [4-(((3R,4R)-4-(3,4-dimethoxybenzyl)-2-oxotetrahydrofuran-3-yl)methyl)-2-methoxyphenyl piperidine-1-carboxylate] was 659 nM; that for `COc1ccc(C[C@H]2COC(=O)[C@@H]2Cc2ccc(OC(=O)N3CCCC3)c(OC)c2)cc1OC` [4-(((3R,4R)-4-(3,4-dimethoxybenzyl)-2-oxotetrahydrofuran-3-yl)methyl)-2-methoxyphenyl pyrrolidine-1-carboxylate] was 785 nM; that for `COc1ccc(C[C@H]2COC(=O)[C@@H]2Cc2ccc(OC(=O)N3CC[C@@H](NC(=O)OC(C)(C)C)C3)c(OC)c2)cc1OC` [(R)-4-(((3R,4R)-4-(3,4-dimethoxybenzyl)-2-oxotetrahydrofuran-3-yl)methyl)-2-methoxyphenyl 3-((tert-butoxycarbonyl)amino) pyrrolidine-1-carboxylate] was 585 nM.

Source of the values: patent publication US8614211B2, “Certain chemical entities, compositions, and methods” (NeuPharma, Inc., priority 2011, dated 2013).
